Experimental data: patent US20110105441A1, “Stable Orally Disintegrating Tablets Having Low Superdisintegrant” (FMC CORPORATION, priority 2009, published 2011)

Experiments:
[1] = cited from earlier work
[2] = cited from earlier work; remark: listed apart in the source
[3] = Dissolution of API from ODTs (USP 31 guidelines); assay type: physicochemical; conditions: 70-80N hardness
Method: Dissolution properties of the ODTs were determined by following USP 31 guidelines for each model APIs. The percent of drug released at predetermined time intervals were calculated and plotted against the sampling time to obtain the release profiles. ODTs that fall within a 70-80N hardness range were studied.

## OC[C@@H](O)[C@@H](O)[C@H](O)[C@H](O)CO [Spray dried mannitol, mannitol]
[1]; at 20° C.
  time in which 5 g dissolves in 150 mL of water: approximately 5 sec

## CC(=O)Oc1ccccc1C(=O)O [Aspirin]
[1]
  solubility in water (in words): highly water soluble

## CC(=O)Nc1ccc(O)cc1 [Acetaminophen]
[2]
  pKa: 9.2
[1]
  solubility in water (in words): highly water soluble
[3]; acetaminophen ODTs
  time to full release of API from ODT: ≤ 10 min

## COc1ccc2cc([C@H](C)C(=O)O)ccc2c1 [Naproxen]
[3]; naproxen ODTs
  time to full release of API from ODT: ≤ 10 min

## CN(C)CC[C@@H](c1ccc(Cl)cc1)c1ccccn1.O=C(O)/C=C\C(=O)O [CPM, Chlorpheniramine Maleate]
[2]
  pKa: 9.2
[3]; CPM ODTs
  time to full release of API from ODT: ≤ 5 min

## Cn1c(=O)c2nc[nH]c2n(C)c1=O [Theophylline]
[2]
  pKa: 8.7
[1]; neutral distilled water at 25° C.
  solubility in water: about 8 mg/mL
[3]; theophylline ODTs
  time to full release of API from ODT: fully released at five minutes
